{
  "source": "patent US8313770B2",
  "about": "“Modifying drug release in suspensions of ionic resin systems” (NEOS Therapeutics, LP, priority 2007, dated 2012)",
  "origin": "cited, not measured here",
  "data": [
    {"smiles": "COc1ccccc1OCC(O)CO", "note": "(stereo not shown) [Guaifenesin, 3(2-methoxyphenoxy)-1,2-propanediol]", "values": [
      {"measurement": "Solubility in water and alcohol", "value": "soluble"}
    ]}
  ]
}
